Source: article PMC6179248, “Peanut-specific T cell responses in patients with different clinical reactivity” (PLoS ONE, 2018)

Key:
[1] = test system: PBMC from peanut allergic and non-allergic donors (IL-5 production); assay: IL-5 ELISPOT with individual peptides after 14-day in vitro expansion (epitope mapping); format: cell-based, human; settings: SFC per 10^6 PBMC, individual peptide 10 μg/ml, 24 h, after 14-day culture; for IL-5 Average SFC (allergics): allergic donors; for IL-5 Average SFC (controls): non-allergic controls
Method: (§1) For in vitro expansions, PBMCs were thawed and cultured in RPMI 1640 (Omega Scientific, Tarzana, CA) supplemented with 5% human AB serum (Gemini Bio-Products, West Sacramento, CA) at a density of 2 × 10^6 cells per mL in 24-well plates (Corning, San Diego, CA) and stimulated with peanut extract (10 μg/ml) or peptide pools at 5 μg/mL. Cells were kept at 37°C, 5% CO2, and additional IL-2 (10 U/mL; ThermoFisher, San Diego, CA) was added every 3 days after initial antigenic stimulation. On day 14, cells were harvested and reactivity against peanut extract (10 μg/ml), peanut specific peptide pools (5 μg/ml) and individual peptides (10 μg/ml) was assessed. The production of IL-5 and IFNγ post-stimulation with peanut extract was analyzed in dual ELISPOT assays. Flat-bottom 96-well nitrocellulose plates (Millipore, Bedford, MA) were prepared according to the manufacturer’s instructions and coated with either 10 μg/ml of both anti-human IL-5 (clone TRFK5) and anti-human IFNγ (clone 1-D1K) or anti-human IL-10 (clone 9D7) and anti-human IL-17 (clone MT44.6) (Mabtech, Cincinnati, OH). PBMC were then incubated at a density of 1 × 10^5/well either with peptide pools (5 μg/ml) or individual peptides (10 μg/ml), peanut extract (10 μg/ml), PHA (10 μg/ml), or medium containing 0.25% DMSO (corresponding to the highest percentage of DMSO in the pools/peptides condition) as a control. After 24 h, cells were removed, and plates were incubated with a cocktail containing either biotinylated anti-human IL-5 (1:50 dilution) (clone 5A10) and horseradish peroxidase (HRP)-conjugated anti-human IFNγ (1:200 dilution) (clone 7-B6-1) or biotinylated anti-human IL-17 (1:200 dilution) (clone MT504) anti-human alkaline phosphatase (AP)-conjugated IL-10 (1:200 dilution) (clone 12G8) (Mabtech, Cincinnati, OH) at 37°C. After 2 h, spots corresponding to the biotinylated IL-5 Ab were developed by incubation with Alkaline-phosphatase-Complex (Vector Laboratories, Burlingame, CA) and then visualized by applying the Vector Blue Alkaline Phosphatase Substrate Kit III (Vector Laboratories, Burlingame, CA) according to the manufacturer’s instructions. Spots corresponding to the HRP-conjugated anti-human IFNγ Ab were visualized by incubation with 3-amino-9-ethylcarvazole solution (Sigma-Aldrich, St. Louis, MO). Spots were counted by computer-assisted image analysis (KS-ELISPOT reader, Zeiss, Munich). Each assay was performed in triplicate. The level of statistical significance was determined with a Student t test using the mean of triplicate values of the response against relevant pools or individual peptides versus the response against the DMSO control. Criteria for response positivity were 20 spot-forming cells (SFCs)/10^6 PBMC, p ≤ 0.05, and a stimulation index (SI) ≥ 2. SFCs are measured per 10^5 PBMC, subsequently readings are background subtracted and multiplied by 10 to be expressed as SFC per million PBMC. T cell epitope mapping was performed to determine epitopes from the major peanut allergens Ara h 1, 2 and 3, recognized by peanut allergic (n = 11) and non-allergic (n = 10) donors. As these studies were performed with samples obtained from pediatric patients, available blood sample volumes were limiting. To overcome this limitation, small pools of predicted peptides matched to the HLA molecules expressed in each donor were tested. For each donor, class II binding affinity predictions were performed using algorithms available through the IEDB (www.iedb.org)[18], to identify the top 6 predicted binders for each of the alleles expressed at the four HLA class II loci (DRB1, DRB3/4/5, DQB1, and DPB1). Accordingly, the screening load for each donor was reduced from 400 peptides to a maximum of 48 peptides (6 peptides x ≤8 class II molecules, less for homozygous donors). The six top predicted peptides for each allele were used to generate allele-specific pools, which were in turn used to expand peanut-specific cells in vitro. […]

[2] = test system: PBMC from peanut allergic and non-allergic donors (IFNγ production); assay: IFNγ ELISPOT with individual peptides after 14-day in vitro expansion (epitope mapping); format: cell-based, human; settings: SFC per 10^6 PBMC, individual peptide 10 μg/ml, 24 h, after 14-day culture; for IFNg Average SFC (allergics): allergic donors; for IFNg Average SFC (controls): non-allergic controls
Method: as §1

LQDLDMMLTCVEIKE [Ara h 1 15-mer, position 426]
IL-5 Average SFC (allergics) [1]: 0 SFC
IL-5 Average SFC (controls) [1]: 403 SFC
IFNg Average SFC (allergics) [2]: 0 SFC
IFNg Average SFC (controls) [2]: 158 SFC

QGRGYFGLIFPGCPS [Ara h 3 15-mer, position 96]
IL-5 Average SFC (allergics) [1]: 0 SFC
IL-5 Average SFC (controls) [1]: 43 SFC
IFNg Average SFC (allergics) [2]: 0 SFC
IFNg Average SFC (controls) [2]: 0 SFC

SRTVLRRNALRRPFY [Ara h 3 15-mer, position 71]
IL-5 Average SFC (controls) [1]: 647 SFC
IFNg Average SFC (controls) [2]: 377 SFC

NNRKSFNLDEGHALR [Ara h 1 15-mer, position 251]
IL-5 Average SFC (controls) [1]: 82 SFC
IFNg Average SFC (controls) [2]: 55 SFC

PHFNSKAMVIVVVNK [Ara h 1 15-mer, position 446]
IL-5 Average SFC (allergics) [1]: 113 SFC
IL-5 Average SFC (controls) [1]: 0 SFC
IFNg Average SFC (allergics) [2]: 0 SFC
IFNg Average SFC (controls) [2]: 0 SFC

QSDNFEYVAFKTDSR [Ara h 3 15-mer, position 466; P19 pool member]
IL-5 Average SFC (allergics) [1]: 164 SFC
IL-5 Average SFC (controls) [1]: 123 SFC
IFNg Average SFC (allergics) [2]: 0 SFC
IFNg Average SFC (controls) [2]: 373 SFC

EYLAFKTDSRPSIAN [Ara h 3 15-mer, position 446; P19 pool member]
IL-5 Average SFC (allergics) [1]: 307 SFC
IL-5 Average SFC (controls) [1]: 50 SFC
IFNg Average SFC (allergics) [2]: 0 SFC
IFNg Average SFC (controls) [2]: 270 SFC

GHALRIPSGFISYIL [Ara h 1 15-mer, position 261]
IL-5 Average SFC (allergics) [1]: 0 SFC
IL-5 Average SFC (controls) [1]: 1080 SFC
IFNg Average SFC (allergics) [2]: 0 SFC
IFNg Average SFC (controls) [2]: 0 SFC

LAGENSVIDNLPEEV [Ara h 3 15-mer, position 486; P19 pool member]
IL-5 Average SFC (allergics) [1]: 306 SFC
IL-5 Average SFC (controls) [1]: 23 SFC
IFNg Average SFC (allergics) [2]: 0 SFC
IFNg Average SFC (controls) [2]: 0 SFC

NELNLLILRWLGLSA [Ara h 3 15-mer, position 386]
IL-5 Average SFC (allergics) [1]: 0 SFC
IL-5 Average SFC (controls) [1]: 607 SFC
IFNg Average SFC (allergics) [2]: 0 SFC
IFNg Average SFC (controls) [2]: 0 SFC

NPINLREGEPDLSNN [Ara h 1 15-mer, position 396]
IL-5 Average SFC (controls) [1]: 457 SFC
IFNg Average SFC (controls) [2]: 240 SFC

QEFLRYQQQQGSRPH [Ara h 3 15-mer, position 206]
IL-5 Average SFC (allergics) [1]: 0 SFC
IL-5 Average SFC (controls) [1]: 144 SFC
IFNg Average SFC (allergics) [2]: 13 SFC
IFNg Average SFC (controls) [2]: 61 SFC

SNREVRRYTARLKEG [Ara h 1 15-mer, position 493]
IL-5 Average SFC (allergics) [1]: 20 SFC
IL-5 Average SFC (controls) [1]: 527 SFC
IFNg Average SFC (allergics) [2]: 42 SFC
IFNg Average SFC (controls) [2]: 108 SFC

SGFTPEFLAQAFQVD [Ara h 3 15-mer, position 266; P19 pool member]
IL-5 Average SFC (allergics) [1]: 394 SFC
IL-5 Average SFC (controls) [1]: 240 SFC
IFNg Average SFC (allergics) [2]: 0 SFC
IFNg Average SFC (controls) [2]: 81 SFC

FQNLQNHRIVQIEAK [Ara h 1 15-mer, position 206; P19 pool member]
IL-5 Average SFC (allergics) [1]: 74 SFC
IL-5 Average SFC (controls) [1]: 0 SFC
IFNg Average SFC (allergics) [2]: 0 SFC
IFNg Average SFC (controls) [2]: 0 SFC

SIIYALRGRAHVQVV [Ara h 3 15-mer, position 421; P19 pool member]
IL-5 Average SFC (allergics) [1]: 400 SFC
IL-5 Average SFC (controls) [1]: 358 SFC
IFNg Average SFC (allergics) [2]: 89 SFC
IFNg Average SFC (controls) [2]: 249 SFC

VTVKGGLRILSPDEE [Ara h 3 15-mer, position 276]
IL-5 Average SFC (controls) [1]: 653 SFC
IFNg Average SFC (controls) [2]: 433 SFC

SPLMLLLGILVLASV [Ara h 1 15-mer, position 6]
IL-5 Average SFC (allergics) [1]: 0 SFC
IL-5 Average SFC (controls) [1]: 30 SFC
IFNg Average SFC (allergics) [2]: 0 SFC
IFNg Average SFC (controls) [2]: 0 SFC

VTVRGGLRILSPDRK [Ara h 3 15-mer, position 301]
IL-5 Average SFC (allergics) [1]: 196 SFC
IL-5 Average SFC (controls) [1]: 44 SFC
IFNg Average SFC (allergics) [2]: 19 SFC
IFNg Average SFC (controls) [2]: 93 SFC

LILRWLGLSAEYGNL [Ara h 3 15-mer, position 391]
IL-5 Average SFC (allergics) [1]: 53 SFC
IL-5 Average SFC (controls) [1]: 1880 SFC
IFNg Average SFC (allergics) [2]: 32 SFC
IFNg Average SFC (controls) [2]: 0 SFC

QRSRQFQNLQNHRIV [Ara h 1 15-mer, position 201]
IL-5 Average SFC (allergics) [1]: 0 SFC
IL-5 Average SFC (controls) [1]: 216 SFC
IFNg Average SFC (allergics) [2]: 0 SFC
IFNg Average SFC (controls) [2]: 102 SFC

FCFLVLGASSISFRQ [Ara h 3 15-mer, position 11]
IL-5 Average SFC (controls) [1]: 25 SFC
IFNg Average SFC (controls) [2]: 0 SFC

MAKLLALSLCFCVLV [Ara h 3 15-mer, position 1]
IL-5 Average SFC (allergics) [1]: 0 SFC
IL-5 Average SFC (controls) [1]: 25 SFC
IFNg Average SFC (allergics) [2]: 0 SFC
IFNg Average SFC (controls) [2]: 9 SFC

GLRILSPDEEDESSR [Ara h 3 15-mer, position 281]
IL-5 Average SFC (controls) [1]: 403 SFC
IFNg Average SFC (controls) [2]: 293 SFC

PHFNSKAMVIVVINK [Ara h 1 15-mer, position 446]
IL-5 Average SFC (allergics) [1]: 41 SFC
IL-5 Average SFC (controls) [1]: 0 SFC
IFNg Average SFC (allergics) [2]: 15 SFC
IFNg Average SFC (controls) [2]: 58 SFC

DADNILVIQQGQATV [Ara h 1 15-mer, position 231]
IL-5 Average SFC (allergics) [1]: 25 SFC
IL-5 Average SFC (controls) [1]: 0 SFC
IFNg Average SFC (allergics) [2]: 0 SFC
IFNg Average SFC (controls) [2]: 37 SFC

RLKEGDVFIMPAAHP [Ara h 1 15-mer, position 503]
IL-5 Average SFC (controls) [1]: 120 SFC
IFNg Average SFC (controls) [2]: 83 SFC

QEFLQHAFQVDRQTV [Ara h 3 15-mer, position 246]
IL-5 Average SFC (allergics) [1]: 57 SFC
IL-5 Average SFC (controls) [1]: 2210 SFC
IFNg Average SFC (allergics) [2]: 0 SFC
IFNg Average SFC (controls) [2]: 390 SFC

GGNIFSGFTPEFLAQ [Ara h 3 15-mer, position 261]
IL-5 Average SFC (allergics) [1]: 0 SFC
IL-5 Average SFC (controls) [1]: 141 SFC
IFNg Average SFC (allergics) [2]: 62 SFC
IFNg Average SFC (controls) [2]: 0 SFC

EYVAFKTDSRPSIAN [Ara h 3 15-mer, position 471; P19 pool member]
IL-5 Average SFC (allergics) [1]: 651 SFC
IL-5 Average SFC (controls) [1]: 225 SFC
IFNg Average SFC (allergics) [2]: 27 SFC
IFNg Average SFC (controls) [2]: 539 SFC

HVQVVDSNGNRVYDE [Ara h 3 15-mer, position 406; P19 pool member]
IL-5 Average SFC (allergics) [1]: 385 SFC
IL-5 Average SFC (controls) [1]: 0 SFC
IFNg Average SFC (allergics) [2]: 0 SFC
IFNg Average SFC (controls) [2]: 240 SFC

SSELHLLGFGINAEN [Ara h 1 15-mer, position 523]
IL-5 Average SFC (allergics) [1]: 492 SFC
IL-5 Average SFC (controls) [1]: 0 SFC
IFNg Average SFC (allergics) [2]: 0 SFC
IFNg Average SFC (controls) [2]: 0 SFC

FQNLQNHRIVQIEAR [Ara h 1 15-mer, position 206]
IL-5 Average SFC (allergics) [1]: 64 SFC
IL-5 Average SFC (controls) [1]: 0 SFC
IFNg Average SFC (allergics) [2]: 13 SFC
IFNg Average SFC (controls) [2]: 0 SFC

TLNAHTIVVALNGRA [Ara h 3 15-mer, position 391]
IL-5 Average SFC (allergics) [1]: 97 SFC
IL-5 Average SFC (controls) [1]: 64 SFC
IFNg Average SFC (allergics) [2]: 16 SFC
IFNg Average SFC (controls) [2]: 61 SFC
